Patent US12024510B2, “Pyrazolopyridine-diamides, their use as insecticide and processes for preparing the same” (PI INDUSTRIES LTD., priority 2017, dated 2024)

How the values were obtained:
Assay type in all cases: in vivo
Spodoptera litura = Spodoptera litura diet incorporation method; settings: third instar larvae, dead and moribund combined, 96 h after release
Outline: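 Compound milled to <2 μm average particle size in surfactant, dispersed in water (500 ppm stock dispersion), then mixed into semi-synthetic diet at ~50° C. One starved third-instar larva per diet cell, 25° C, 70% RH; percent mortality (dead plus moribund) scored at 96 h.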

Helicoverpa armigera = Helicoverpa armigera diet incorporation method; settings: third instar larvae, dead and moribund combined, 96 h after release
Outline: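 Third-instar larvae, starved, were placed singly on diet pieces containing test dispersion (bead-milled in surfactant, particles under 2 μm, 500 ppm stock then diluted). Trays kept at 25° C. and 70% RH; mortality counted at 96 h, moribund larvae counted with dead.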

Plutella xylostella = assay: whole plant or invertebrate; settings: foliar, cabbage leaf dip, second instar larvae, dead and moribund combined, 72 h after release
Outline: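 Leaf-dip bioassay: second-instar larvae, singly, fed on cabbage leaves dipped 10 s in test dispersion (bead-milled, diluted with 0.01% Triton-X to test concentration) and dried 20 min. Held at 25 °C, 70% RH; % mortality counts dead and moribund at 72 h.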

Measured: mortality at 300 ppm

CCCNC(=O)c1c(NC(=O)c2cc(OC)nn2-c2ncccc2Cl)c(C)cc2ccnn12 [Compound 29, 6-(1-(3-chloropyridin-2-yl)-3-methoxy-1H-pyrazole-5-carboxamido)-5-methyl-N-propylpyrazolo[1,5-a]pyridine-7-carboxamide]
> 70%: all assays above

Cc1cc2ccnn2c(C(=O)NCC(F)F)c1NC(=O)c1cc(Br)nn1-c1ncccc1Cl [Compound 186, 6-(3-bromo-1-(3-chloropyridin-2-yl)-1H-pyrazole-5-carboxamido)-N-(2,2-difluoroethyl)-5-methylpyrazolo[1,5-a]pyridine-7-carboxamide]
> 70%: all assays above

CNC(=O)c1c(NC(=O)c2cc(Cn3nnc(C(F)(F)F)n3)nn2-c2ncccc2Cl)c(Cl)cc2ccnn12 [Compound 153, 5-chloro-6-(1-(3-chloropyridin-2-yl)-3-((5-(trifluoromethyl)-2H-tetrazol-2-yl)methyl)-1H-pyrazole-5-carboxamido)-N-methylpyrazolo[1,5-a]pyridine-7-carboxamide]
> 70%: all assays above

CNC(=O)c1c(NC(=O)c2cc(Br)nn2-c2ncccc2Cl)c(Br)cc2ccnn12 [Compound 51, 5-bromo-6-(3-bromo-1-(3-chloropyridin-2-yl)-1H-pyrazole-5-carboxamido)-N-methylpyrazolo[1,5-a]pyridine-7-carboxamide]
> 70%: all assays above

C#CCNC(=O)c1c(NC(=O)c2cc(C(F)(F)F)nn2-c2ncccc2Cl)c(C)cc2ccnn12 [Compound 108, 6-(1-(3-chloropyridin-2-yl)-3-(trifluoromethyl)-1H-pyrazole-5-carboxamido)-5-methyl-N-(prop-2-yn-1-yl)pyrazolo[1,5-a]pyridine-7-carboxamide]
> 70%: all assays above

CNC(=O)c1c(NC(=O)c2cc(C(F)(F)F)nn2-c2ncccc2Cl)c(C)cc2ccnn12 [Compound 63, 6-(1-(3-chloropyridin-2-yl)-3-(trifluoromethyl)-1H-pyrazole-5-carboxamido)-N,5-dimethylpyrazolo[1,5-a]pyridine-7-carboxamide]
> 70%: all assays above

C=CCNC(=O)c1c(NC(=O)c2cc(OC)nn2-c2ncccc2Cl)c(C)cc2ccnn12 [Compound 44, N-allyl-6-(1-(3-chloropyridin-2-yl)-3-methoxy-1H-pyrazole-5-carboxamido)-5-methylpyrazolo[1,5-a]pyridine-7-carboxamide]
> 70%: all assays above

COc1cc(C(=O)Nc2c(C)cc3ccnn3c2C(=O)NCC(F)F)n(-c2ncccc2Cl)n1 [Compound 214, 6-(1-(3-chloropyridin-2-yl)-3-methoxy-1H-pyrazole-5-carboxamido)-N-(2,2-difluoroethyl)-5-methylpyrazolo[1,5-a]pyridine-7-carboxamide]
> 70%: all assays above

Cc1cc2ccnn2c(C(=O)NC(C)(C)C)c1NC(=O)c1cc(Cn2nnc(C(F)(F)F)n2)nn1-c1ncccc1Cl [Compound 170, N-(tert-butyl)-6-(1-(3-chloropyridin-2-yl)-3-((5-(trifluoromethyl)-2H-tetrazol-2-yl)methyl)-1H-pyrazole-5-carboxamido)-5-methylpyrazolo[1,5-a]pyridine-7-carboxamide]
> 70%: all assays above

CCCNC(=O)c1c(NC(=O)c2cc(Br)nn2-c2ncccc2Cl)c(C)cc2ccnn12 [Compound 21, 6-(3-bromo-1-(3-chloropyridin-2-yl)-1H-pyrazole-5-carboxamido)-5-methyl-N-propylpyrazolo[1,5-a]pyridine-7-carboxamide]
> 70%: all assays above
